Like-named read-outs stand apart in the source and are kept apart here.
Tests used:
C. albicans ATCC 10231 = assay: Antifungal growth inhibition (OD) screen against C. albicans; assay type: cell-based; conditions: Candida albicans, read-out: IC50 CA
Method: (§1) Dried extracts were resuspended in MeOH to obtain 20 mg/mL sample concentration followed by sonication for complete solubilizing. Ten microliters (10 µL) of the extracts per well were added to 96-well plates followed by drying via centrifugal vacuum concentrator. Upon drying, 100 µL of 10% DMSO was added to each well to obtain a sample concentration of 2 mg/mL. Ten microliters (10 µL) were subsequently used for the antimicrobial bioassays where 90 µL of the respective microbial cultures were added to each sample, leading to a final extract concentration of 200 µg/mL. For preliminary screening, extracts from all 30 fungi were evaluated for antimicrobial activities using the highest concentration of 200 µg/mL.
For the C. albicans screen, a single colony from freshly streaked C. albicans on Sabouraud dextrose agar (SDA) was inoculated into 25-mL of Sabouraud liquid medium (SLM) and incubated at 35 °C with shaking at 150 rpm for 18 hrs. Subsequently, 1% of the culture (250 µL) was prepared with SLM and incubated at 35 °C with shaking for 6 h. OD600 was monitored until it reached approximately 0.8. Cell density (D) of the culture was calculated using the following equation: D = [(30 × OD600) − 8] × 10^6 CFU/mL. Final cell densities were adjusted to 2.5 × 10^5 CFU/mL and inoculated as 90 µL suspensions into 96-well plates. Similar to the antibacterial assays, upon addition of 10 µL of extracts to the cell suspensions, the plates were incubated at 37 °C for 20 h prior to OD readings. For each extract tested, three technical replicates were used. Amphotericin B was used as the antifungal standard control in C. albicans screen.

[1] = test system: Escherichia coli ATCC 25922; assay: Antibacterial broth microdilution growth inhibition (OD600) against E. coli; assay type: cell-based; conditions: read-out: IC50 EC
Method: as §1
(§2) For the antibacterial bioassays, the test microorganisms S. aureus, Methicillin-resistant S. aureus (MRSA) and E. coli were plated on Mueller-Hinton II agar (Merck, Germany) and incubated overnight at 37 °C. Colonies were added to a glass tube containing 0.85% saline solution until the turbidity was equivalent to 0.5 McFarland Standard (approximate cell density 1.5 × 10^8 CFU/mL). Cell suspensions were then diluted in MH2 liquid media to obtain a final cell density of 5 × 10^5 CFU/mL. Ninety microliters (90 µL) of cell suspensions were added to 10 µL of extracts in the 96-well bioassay plates and incubated at 37 °C for 20 h. For each extract tested, three replicates were used. The optical density (OD) of each well was measured using a Hidex Sense microplate reader (Hidex, Finland) at 600 nm. Percentage growth inhibition was calculated according to the following formula with the quality of the bioassay assessed based on the Z-prime analysis. A Z-prime of ≥0.7 indicates the robustness of the high throughput screening data. Gentamicin was used as the standard control against S. aureus and E. coli while vancomycin was used as the standard control in the MRSA assay.

[2] = test system: Staphylococcus aureus ATCC 25923; assay: Antibacterial broth microdilution growth inhibition (OD600) against S. aureus; assay type: cell-based; conditions: for IC50: read-out: IC50 SA
Method: as §1, §2

[3] = test system: Methicillin-resistant Staphylococcus aureus ATCC 33591; assay: Antibacterial broth microdilution growth inhibition (OD600) against MRSA; assay type: cell-based; conditions: 20 h
Method: as §1, §2

human hepatoma cell line = conditions: cited from earlier work
[4] = test system: A549 human lung carcinoma cells ATCC CCL-185; assay: Cytotoxicity assay (PrestoBlue, 72 h) on A549 cells; assay type: cell-based; conditions: for IC50: Homo sapiens, read-out: IC50 A549
Method: The cytotoxic effect of the isolated compounds on the A549 human lung carcinoma cell line was determined as described previously. A549 cells at a concentration of 3.3 × 10^4 cells/mL in Dulbecco’s Modified Eagle Medium (DMEM, Gibco, Life Technologies, Bleiswijk, The Netherlands) were treated with isolated compounds at concentrations ranging from 0.1 μM to 200 μM and incubated for 72 h at 37 °C in 5% CO2 and 95% relative humidity. Cytotoxic effect of the compounds was measured after the addition of PrestoBlue™ cell viability reagent (Thermo Fisher Scientific, USA) and incubation for 2 h by reading of the plates’ fluorescence at an excitation wavelength of 560 nm and emission wavelength of 590 nm using the Tecan Infinite M1000 Pro reader. Puromycin served as the standard control.

[5] = test system: L5178Y mouse lymphoma cell line; set-up: method as in doi:10.1016/j.phytol.2014.12.010; conditions: cited from earlier work
[6] = mycotoxins associated with food spoilage; cited from earlier work
[7] = ATCC10231, isolated compounds, C. albicans ATCC 10231, 20 h
[8] = ATCC25922, isolated compounds, E. coli ATCC 25922, 20 h, 37 °C
[9] = Staphylococcus aureus, ATCC25923, isolated compounds, S. aureus ATCC 25923, 20 h, 37 °C
[10] = Staphylococcus aureus, isolated compounds, MRSA ATCC 33591, 37 °C, read-out: IC50 MRSA
[11] = isolated compounds, A549 cells, 72 h
[12] = Staphylococcus aureus, read-out: IC50 MRSA, isolated compounds, MRSA ATCC 33591, 37 °C
[13] = Staphylococcus aureus, ATCC25923, 20 h, isolated compounds, S. aureus ATCC 25923, 20 h, 37 °C
[14] = Staphylococcus aureus, read-out: IC50 MRSA

| Molecule | IC50 (C. albicans ATCC 10231; [7]) | IC50 [1, 8] | IC50 [2, 9] | IC50 [4, 11] | IC50 ([4]; A549, 72 h) | other results |
| --- | --- | --- | --- | --- | --- | --- |
| C[C@@H]1[C@H](O)[C@@H](C)/C=C/C=C/C=C/C=C/C=C/C=C/C=C/[C@H](O[C@@H]2O[C@H](C)[C@@H](O)[C@H](N)[C@@H]2O)C[C@@H]2O[C@](O)(C[C@@H](O)C[C@@H](O)[C@H](O)CC[C@@H](O)C[C@@H](O)CC(=O)O[C@H]1C)C[C@H](O)[C@H]2C(=O)O [Amphotericin B, reference compound] | 0.14 µM | – | – | – | – | – |
| CNC(C)C1CCC(N)C(OC2C(N)CC(N)C(OC3OCC(C)(O)C(NC)C3O)C2O)O1 (stereo not shown) [Gentamicin, reference compound] | – | 0.67 µM | 0.22 µM | – | – | – |
| COC(=O)c1ccccc1NC(=O)C(CC[S+](C)[O-])NC(=O)c1cnc2c(=O)n(C)c(=O)n(C)c2n1 (stereo not shown) [Penilumamide A] | > 200 µM | > 200 µM | 88 µM | 100 µM | – | IC50 [3, 10]: > 200 µM; cytotoxicity activity against a human hepatoma cell line (human hepatoma cell line): weak cytotoxicity activity; antimicrobial activity against S. aureus (in words) ([2]; isolated compounds): weak; cytotoxic activity against A549 cells (in words) ([4]; isolated compounds): weak |
| COC(=O)c1ccccc1NC(=O)C(CCSC)NC(=O)c1cnc2c(n1)c(=O)n(C)c(=O)n2C (stereo not shown) [Penilumamide B] | > 200 µM | > 200 µM | > 200 µM | 113 µM | – | IC50 [3, 10]: > 200 µM |
| CC(NC(=O)c1cnc2c(n1)c(=O)n(C)c(=O)n2C)C(=O)Nc1ccccc1C(N)=O (stereo not shown) [Penilumamide D] | > 200 µM | > 200 µM | > 200 µM | > 200 µM | – | IC50 [3, 10]: > 200 µM; cytotoxicity activity against a human hepatoma cell line (human hepatoma cell line): weak cytotoxicity activity |
| COc1ccc(C2SSC34CC5(O)C(O)C=CC(O)C5ON3C(=O)C2N(C)C4=O)c(O)c1OC (stereo not shown) [Pretrichodermamide C] | > 200 µM | > 200 µM | – | – | > 200 µM | IC50 [3, 12]: < 50 µM; IC50 ([3]; read-out: IC50 MRSA, isolated compounds, MRSA ATCC 33591, 37 °C): 41.6 µM; activity against the L5178Y mouse lymphoma cell line [5]: inactive; IC50 [2, 13]: < 50 µM; IC50 ([2]; isolated compounds, S. aureus ATCC 25923, 20 h, 37 °C): 34.7 µM; cytotoxic activity against A549 cells (in words) ([4]; isolated compounds): no cytotoxic activity |
| COc1ccc(C[C@H](N)C(=O)N[C@H]2[C@@H](O)[C@H](n3cnc4c(N(C)C)ncnc43)O[C@@H]2CO)cc1 [Puromycin, reference compound] | – | – | – | 0.25 µM | – | – |
| CN[C@H](CC(C)C)C(=O)N[C@H]1C(=O)N[C@@H](CC(N)=O)C(=O)N[C@H]2C(=O)N[C@H]3C(=O)N[C@H](C(=O)N[C@H](C(=O)O)c4cc(O)cc(O)c4-c4cc3ccc4O)[C@H](O)c3ccc(c(Cl)c3)Oc3cc2cc(c3O[C@@H]2O[C@H](CO)[C@@H](O)[C@H](O)[C@H]2O[C@H]2C[C@](C)(N)[C@H](O)[C@H](C)O2)Oc2ccc(cc2Cl)[C@H]1O [Vancomycin, reference compound] | – | – | – | – | – | IC50 [3, 14]: 1.5 µM |
| COC1=C(c2c(OC)cc3cc4c(c(O)c3c2O)C(=O)OC(C)C4)C(=O)c2c(cc3c(c2O)C(=O)OC(C)C3)C1=O (stereo not shown) [Viomellein] | 17.9 µM | > 100 µM | – | – | 42 µM | liver and kidney damage in animals [6]: known to cause liver and kidney damage in animals; IC50 [3, 12]: 2.9 µM; IC50 [2, 13]: 3.2 µM |
| COc1cc2cc3c(c(O)c2c(O)c1-c1c(OC)cc2cc4c(c(O)c2c1O)C(=O)O[C@H](C)C4)C(=O)O[C@H](C)C3 [Vioxanthin] | – | – | – | – | 77.1 µM | IC50 ([1]; ATCC25922, 20 h): > 200 µM; liver and kidney damage in animals [6]: known to cause liver and kidney damage in animals; IC50 (C. albicans ATCC 10231; ATCC10231, 20 h): 36.4 µM; IC50 [3, 14]: 1.6 µM; IC50 ([2]; Staphylococcus aureus, ATCC25923, 20 h): 3 µM |
| COC1=C(C2=C(OC)C(=O)c3cc4c(c(O)c3C2=O)C(=O)OC(C)C4)C(=O)c2c(cc3c(c2O)C(=O)OC(C)C3)C1=O (stereo not shown) [Xanthomegnin] | 18.6 µM | > 200 µM | – | – | 65.6 µM | liver and kidney damage in animals [6]: known to cause liver and kidney damage in animals; IC50 [3, 12]: 35.3 µM; IC50 [2, 13]: 19.2 µM |
| Penilumamide E | – | – | – | – | – | cytotoxicity activity against a human hepatoma cell line (human hepatoma cell line): weak cytotoxicity activity |

From PMC9861175, “Diversity and Biosynthetic Potential of Fungi Isolated from St. John’s Island, Singapore” (International Journal of Molecular Sciences, 2023)
